According to patent US20060004428A1, “Pyrrolo (3,4-c) carbazole and pyrido (2,3-b) pyrrolo (3,4-e) indole derivatives, preparation method and pharmaceutical compositions containing same” (priority 2002, published 2006):

Experiments:
L1210 murine leukaemia = assay: In vitro cytotoxicity, Microculture Tetrazolium Assay, L1210; assay type: cell-based; conditions: Mus musculus, exposure 4 doubling periods, or 48 hours, read-out: IC50, the concentration of cytotoxic agent which inhibits the proliferation of the treated cells by 50%
Procedure: (§1) Four cell lines were used: • L1210 murine leukaemia • A549 human non-small-cell lung carcinoma • HT29 human colon carcinoma • DU145 prostate carcinoma
(§2) L1210 murine leukaemia was used in vitro. The cells are cultured in RPMI 1640 complete culture medium containing 10% foetal calf serum, 2 mM glutamine, 50 units/ml of penicillin, 50 μg/ml of streptomycin and 10 mM Hepes, pH: 7.4. The cells are distributed on microplates and are exposed to the cytotoxic compounds for 4 doubling periods, or 48 hours. The number of viable cells is then quantified by a calorimetric assay, the Microculture Tetrazolium Assay (J. Carmichael et al., Cancer Res.; 47, 936-942 (1987)). The results are expressed as the IC50, the concentration of cytotoxic agent which inhibits the proliferation of the treated cells by 50%.

[1] = tested on: A549 human non-small-cell lung carcinoma; assay: In vitro cytotoxicity, Microculture Tetrazolium Assay, A549; assay type: cell-based; conditions: read-out: IC50, the concentration of cytotoxic agent which inhibits the proliferation of the treated cells by 50%
Procedure: as §1, §2

[2] = tested on: HT29 human colon carcinoma; assay: In vitro cytotoxicity, Microculture Tetrazolium Assay, HT29; assay type: cell-based; conditions: HT-29, read-out: IC50, the concentration of cytotoxic agent which inhibits the proliferation of the treated cells by 50%
Procedure: as §1, §2

DU145 prostate carcinoma = assay: In vitro cytotoxicity, Microculture Tetrazolium Assay, DU145; assay type: cell-based; conditions: Homo sapiens, DU-145, read-out: IC50, the concentration of cytotoxic agent which inhibits the proliferation of the treated cells by 50%
Procedure: as §1, §2

| melting point [°C] | SMILES | other results |
| --- | --- | --- |
| 204 | CC(=O)OC[C@H]1O[C@@H](n2c3ncccc3c3c4c(n5cncc5c32)C(=O)N(C)C4=O)[C@H](OC(C)=O)[C@@H](OC(C)=O)[C@@H]1OC(C)=O [Example 21, 2-Methyl-8-(2,3,4,6-tetra-O-acetyl-β-D-glucopyranosyl)-imidazo-[1,5-a]pyrido[3′,2′:4,5]pyrrolo[2,3-c]pyrrolo[3,4-e]pyridine-1,3(2H,8H)-dione] |  |
| > 300 | O=C1NC(=O)c2c1c1c3cc(Br)ccc3[nH]c1c1cccn21 [Example 7, 11-Bromopyrrolo[3′,4′:5,6]indolizino[8,7-b]indole-1,3(2H,8H)-dione] |  |
| 275 | O=C1NC(=O)c2c1c1c3cc(OCc4ccccc4)ccc3[nH]c1c1cccn21 [Example 3, 11-(Benzyloxy)pyrrolo[3′,4′:5,6]indolizino[8,7-b]indole-1,3(2H,8H)-dione] |  |
| 298 to 304 | O=C1NC(=O)c2c1c1c3cc(Cl)ccc3[nH]c1c1cccn21 [Example 9, 11-Chloropyrrolo[3′,4′:5,6]indolizino[8,7-b]indole-1,3(2H,8H)-dione] |  |
| > 300 | CN1C(=O)c2c(n3cccc3c3[nH]c4ccc(Br)cc4c23)C1=O [Example 8, 11-Bromo-2-methylpyrrolo[3′,4′:5,6]indolizino[8,7-b]indole-1,3(2H,8H)-dione] |  |
| 304 to 307 | CN1C(=O)c2c(n3cncc3c3[nH]c4ncccc4c23)C1=O [Example 18, 2-Methylimidazo[1,5-a]pyrido[3′,2′:4,5]pyrrolo[2,3-c]pyrrolo[3,4-e]-Pyridine-1,3(2H,8H)-dione] |  |
| 226 to 228 | CN1C(=O)c2c(n3cccc3c3[nH]c4ccccc4c23)C1=O [Example 2, 2-Methylpyrrolo[3′,4′:5,6]indolizino[8,7-b]indole-1,3(2H,8H)dione] |  |
| 222 to 224 | CN1C(=O)C2c3c([nH]c4ncccc34)-c3nccn3C2C1=O (stereo not shown) [Example 19, 6-Methyl-7a,12-dihydroimidazo[1,2-a]pyrido[3′,2′:4,5]pyrrolo[2,3-c]-pyrrolo[3,4-e]pyridine-5,7(4aH,6H)-dione] |  |
| 218 to 220 | O=C1NC(=O)c2c1c1c3ccccc3[nH]c1c1cccn21 [Example 1, Pyrrolo[3′,4′:5,6]indolizino[8,7-b]indole-1,3(2H,8H)dione] | IC50 (L1210 murine leukaemia): 3.1 µM; IC50 [1]: 1990 nM; IC50 [2]: 3.3 µM; IC50 (DU145 prostate carcinoma): 1400 nM |
